Values of other authors, collected in US6365196B1, “Controlled release solid dosage forms of lithium carbonate” (SmithKline Beecham Corporation, priority 1997, dated 2002).

solubility in water: 6 mg per ml
Compound: O=C(O)/C=C/C(=O)O [fumaric acid]
